Data from patent US9113629B2, “4-amino-6-(4-substituted-phenyl)-picolinates and 6-amino-2-(4-substituted-phenyl)-pyrimidine-4-carboxylates and their use as herbicides” (DOW AGROSCIENCES LLC, priority 2013, dated 2015).

Experiments:
[1] = system: HORSS: barley, including spring and winter (Hordeum vulgare); experiment: Post-emergent Test III, herbicidal activity in wheat and barley; type: in vivo; conditions: Table 9, 21 d; for pest or weed control at 35 g/ha: 35 g ai/ha; for pest or weed control at 70 g/ha: 70 g ai/ha; for GR20 HORSS: dose for 20 percent growth reduction, probit analysis
Procedure: (§1) Post-emergent Test III. Seeds of the desired test plant species were planted in Sun Gro MetroMix® 306 planting mixture, which typically has a pH of 6.0 to 6.8 and an organic matter content of about 30 percent, in plastic pots with a surface area of 103.2 square centimeters (cm^2). When required to ensure good germination and healthy plants, a fungicide treatment and/or other chemical or physical treatment was applied. The plants were grown for 7-36 days (d) in a greenhouse with an approximate 14 hour (h) photoperiod which was maintained at about 18° C. during the day and 17° C. during the night. Nutrients and water were added on a regular basis and supplemental lighting was provided with overhead metal halide 1000-Watt lamps as necessary. The plants were employed for testing when they reached the second or third true leaf stage.
(§2) A weighed amount, determined by the highest rate to be tested, of each test compound was placed in a 25 mL glass vial and was dissolved in 4 mL of a 97:3 v/v mixture of acetone and DMSO to obtain concentrated stock solutions. […] The concentrated stock solutions obtained were diluted with 20 mL of an aqueous mixture containing acetone, water, isopropyl alcohol, DMSO, Agri-Dex crop oil concentrate, and X-77 surfactant in a 48:39:10:1.5:1.5:0.02 v/v ratio to obtain spray solutions containing the highest application rates. Additional application rates were obtained by serial dilution of 12 mL of the high rate solution into a solution containing 2 mL of 97:3 v/v mixture of acetone and DMSO and 10 mL of an aqueous mixture containing acetone, water, isopropyl alcohol, DMSO, Agri-Dex crop oil concentrate, and X-77 surfactant in a 48:39:10:1.5:1.5:0.02 v/v ratio to obtain ½×, ¼×, ⅛× and 1/16× rates of the high rate. Compound requirements are based upon a 12 mL application volume at a rate of 187 liters per hectare (L/ha). Formulated compounds were applied to the plant material with an overhead Mandel track sprayer equipped with 8002E nozzles calibrated to deliver 187 L/ha over an application area of 0.503 square meters at a spray height of 18 inches (43 cm) above the average plant canopy height. Control plants were sprayed in the same manner with the solvent blank.
(§3) The treated plants and control plants were placed in a greenhouse as described above and watered by subirrigation to prevent wash-off of the test compounds. After 21 d, the condition of the test plants as compared with that of the untreated plants was determined visually and scored on a scale of 0 to 100 percent where 0 corresponds to no injury and 100 corresponds to complete kill.
(§4) By applying the well-accepted probit analysis as described by J. Berkson in Journal of the American Statistical Society, 48, 565 (1953) and by D. Finney in “Probit Analysis” Cambridge University Press (1952), herbicidal injury of a specific compound at various rates can be used to calculate GR20, GR50, GR80 and GR90 values, which are defined as growth reduction factors that correspond to the effective dose of herbicide required to provide plant growth reduction (GR) of 20 percent, 50 percent, 80 percent and 90 percent, respectively. Probit analysis was applied to data collected from multiple dose rates of individual compounds utilizing the procedures explained in the following examples. The analysis of those dose rates is captured in the following tables.

[2] = system: SETVI: green foxtail (Setaria viridis); experiment: as above; type: in vivo; conditions: Table 9, 21 d; for pest or weed control at 35 g/ha: 35 g ai/ha; for pest or weed control at 70 g/ha: 70 g ai/ha; for GR50 SETVI: dose for 50 percent growth reduction; for GR50 SETVI / GR80 SETVI: probit analysis; for GR80 SETVI: dose for 80 percent growth reduction
Procedure: as §1, §2, §3, §4

[3] = system: LOLSS: ryegrass including, Italian ryegrass (Lolium multiflorum), rigid ryegrass (Lolium rigidum), annual ryegrass (Lolium multiflorum subsp. Gaudini); experiment: as above; type: in vivo; conditions: Table 9, probit analysis, 21 d; for GR50 LOLSS: dose for 50 percent growth reduction; for GR80 LOLSS: dose for 80 percent growth reduction
Procedure: as §1, §2, §3, §4

[4] = system: TRZSS: wheat, including spring and winter (Triticum aestivum); experiment: as above; type: in vivo; conditions: Table 9, 21 d; for GR20 TRZSS: dose for 20 percent growth reduction, probit analysis; for pest or weed control at 35 g/ha: 35 g ai/ha; for pest or weed control at 70 g/ha: 70 g ai/ha
Procedure: as §1, §2, §3, §4

[5] = as above; type: in vivo, Lolium multiflorum, Lolium rigidum; conditions: Lolium multiflorum, post-emergence, 504 h, Table 9, post-emergent, 21 d, read-out: Visual Growth Reduction (%) 21 Days After Application LOLSS; for pest or weed control at 35 g/ha: 35 g ai/ha; for pest or weed control at 70 g/ha: 70 g ai/ha
Procedure: as §1, §2, §3, §4

[6] = system: APESV: bentgrass (Apera spica-venti); experiment: as above; type: in vivo; conditions: Table 9, 21 d; for pest or weed control at 35 g/ha: 35 g ai/ha; for pest or weed control at 70 g/ha: 70 g ai/ha; for GR50 APESV: dose for 50 percent growth reduction; for GR50 APESV / GR80 APESV: probit analysis; for GR80 APESV: dose for 80 percent growth reduction
Procedure: as §1, §2, §3, §4

[7] = system: KCHSC: kochia (Kochia scoparia); experiment: as above; type: in vivo; conditions: Table 9, 21 d; for pest or weed control at 35 g/ha: 35 g ai/ha; for pest or weed control at 70 g/ha: 70 g ai/ha; for GR50 KCHSC: dose for 50 percent growth reduction; for GR50 KCHSC / GR80 KCHSC: probit analysis; for GR80 KCHSC: dose for 80 percent growth reduction
Procedure: as §1, §2, §3, §4

[8] = Hordeum vulgare, post-emergence, 504 h, post-emergent, read-out: Visual Growth Reduction (%) 21 Days After Application HORSS
[9] = Setaria viridis, post-emergence, 504 h, post-emergent, read-out: Visual Growth Reduction (%) 21 Days After Application SETVI
[10] = Triticum aestivum, post-emergence, 504 h, post-emergent, read-out: Visual Growth Reduction (%) 21 Days After Application TRZSS
[11] = Apera spica-venti, post-emergence, 504 h, post-emergent, read-out: Visual Growth Reduction (%) 21 Days After Application APESV
[12] = Bassia scoparia, post-emergence, 504 h, post-emergent, read-out: Visual Growth Reduction (%) 21 Days After Application KCHSC

| Structure (SMILES) | pest or weed control at 35 g/ha [1, 8] [%] | pest or weed control at 70 g/ha [1, 8] [%] | GR20 HORSS [1] [g ai/ha] | pest or weed control at 35 g/ha [2, 9] [%] | pest or weed control at 70 g/ha [2, 9] [%] | GR50 SETVI [2] [g ai/ha] | GR80 SETVI [2] [g ai/ha] | GR50 LOLSS [3] [g ai/ha] | GR80 LOLSS [3] [g ai/ha] | GR20 TRZSS [4] [g ai/ha] | pest or weed control at 35 g/ha [4, 10] [%] | pest or weed control at 70 g/ha [4, 10] [%] | pest or weed control at 35 g/ha [5] [%] | pest or weed control at 70 g/ha [5] [%] | pest or weed control at 35 g/ha [6, 11] [%] | pest or weed control at 70 g/ha [6, 11] [%] | GR50 APESV [6] [g ai/ha] | GR80 APESV [6] [g ai/ha] | pest or weed control at 35 g/ha [7, 12] [%] | pest or weed control at 70 g/ha [7, 12] [%] | also measured |
| --- | --- | --- | --- | --- | --- | --- | --- | --- | --- | --- | --- | --- | --- | --- | --- | --- | --- | --- | --- | --- | --- |
| Cc1c(-c2ccc(C(F)(F)F)c(F)c2)nc(C(=O)O)c(Cl)c1N [Compound 161, 4-amino-3-chloro-6-(3-fluoro-4-(trifluoromethyl)phenyl)-5-methylpicolinic acid] | 85 to 94 | 85 to 94 | 1 | 30 to 44 | 60 to 74 | 53 | 128 | 38 | 82 | 1 | 75 to 84 | 75 to 84 | 0 to 29 | 0 to 29 | 60 to 74 | 75 to 84 | 30 | 57 | 0 to 29 | 0 to 29 | GR50 KCHSC [7]: >140 g ai/ha; GR80 KCHSC [7]: >140 g ai/ha |
| Nc1c(Cl)c(C(=O)O)nc(-c2ccc(C(F)(F)F)c(F)c2)c1Cl [Compound 146] | 75 to 84 | 85 to 94 | 1 | 45 to 59 | 75 to 84 | 41 | 76 | >140 | >140 | 1 | 75 to 84 | 85 to 94 | 0 to 29 | 0 to 29 | 95 to 100 | 95 to 100 | 23 | 34 | 0 to 29 | 0 to 29 | pest or weed control at 140 g/ha ([1]; Hordeum vulgare, post-emergence, 504 h, 140 g ai/ha, post-emergent, read-out: Visual Growth Reduction (%) 21 Days After Application HORSS): 95 to 100%; pest or weed control at 140 g/ha ([2]; Setaria viridis, post-emergence, 504 h, 140 g ai/ha, post-emergent, read-out: Visual Growth Reduction (%) 21 Days After Application SETVI): 95 to 100%; pest or weed control at 140 g/ha ([4]; Triticum aestivum, post-emergence, 504 h, 140 g ai/ha, post-emergent, read-out: Visual Growth Reduction (%) 21 Days After Application TRZSS): 85 to 94%; pest or weed control at 140 g/ha ([5]; 140 g ai/ha): 0 to 29%; pest or weed control at 140 g/ha ([6]; Apera spica-venti, post-emergence, 504 h, 140 g ai/ha, post-emergent, read-out: Visual Growth Reduction (%) 21 Days After Application APESV): 95 to 100%; pest or weed control at 140 g/ha ([7]; Bassia scoparia, post-emergence, 504 h, 140 g ai/ha, post-emergent, read-out: Visual Growth Reduction (%) 21 Days After Application KCHSC): 0 to 29%; GR50 KCHSC [7]: >140 g ai/ha; GR80 KCHSC [7]: >140 g ai/ha |
| C#Cc1ccc(-c2nc(C(=O)O)c(C=C)c(N)c2F)cc1 [Compound 36] | 30 to 44 | 60 to 74 | 16 | 0 to 29 | 30 to 44 | 126 | >140 | >140 | >140 | 1 | 75 to 84 | 75 to 84 | 0 to 29 | 0 to 29 | 0 to 29 | 0 to 29 | >140 | >140 | 0 to 29 | 0 to 29 | GR50 KCHSC [7]: >140 g ai/ha; GR80 KCHSC [7]: >140 g ai/ha |
| COC(=O)c1nc(-c2ccc(I)cc2F)cc(N)c1Cl [Compound 159] | 85 to 94 | 95 to 100 | 1 | 45 to 59 | 60 to 74 | 43 | 113 | 36 | 89 | 1 | 85 to 94 | 95 to 100 | 45 to 59 | 60 to 74 | 85 to 94 | 95 to 100 | 11 | 25 | 85 to 94 | 95 to 100 | GR50 KCHSC [7]: 4 g ai/ha; GR80 KCHSC [7]: 19 g ai/ha |
